Data set [1] concerns Replicon cells, expressing the GT1b HCV luciferase replicon.
The next data set deals with Dengue virus. Kind of data set: Dengue assay on cryopreserved PBMC cells (plaque reduction readout on BHK cells). Type of data set: cell-based. As to conditions: human PBMC cells. The protocol: Cryopreserved human PBMC cells were purchased from approved vendors. It was then thawed according to manufacturer's instructions and suspended in RPMI medium supplemented with 1% penicillin/streptomycin solution and 10% Fetal Calf serum. The cells were then counted and viability checked (viability should be at least 70%). After centrifuging and removing the media, the cells were diluted to 1×10^7 cells/mL in RPMI medium supplemented with 1% penicillin/streptomycin. 50 μl of the cells were then dispensed into 96-well tissue culture plate constituting 5×10^5 cells/well. Next, virus with humanized 4G2 mixture was prepared for infection. Briefly, virus (2×10^7 pfu/ml) was mixed with humanized 4G2 antibody with the final antibody concentration of 0.38 μg/ml and incubated for 30 minutes at 4° C. to assist virus/antibody complex formation. The virus-antibody complex was then added to the PBMC at multiplicity of infection (M.O.I) of 0.5. The resulting media was then and further incubated the plates at 37° C. in the humidified incubator for infection to take place. Serial diluted compounds were then added and finally media was added such that the final media volume was 200 μl with 2% Fetal Calf Serum. The plates were then incubated at 37° C., 5% CO2 for another 48 hours. The extent of the infection and compound inhibition was measured by plaque reduction assay using BHK cells. Briefly, BHK cells grown in 24-well tissue culture were subjected to supernatants derived from infection containing serial diluted compounds. After additional 4 days, the monolayer of BHK cells were fixed, stained with crystal violet stain and plaques counted. Dose response curves were plotted from the mean absorbance (n=3) versus the log of the concentration of test compounds. The EC50 is calculated by nonlinear regression analysis. A positive control (7-deaza-2′-C-acetylene-adenosine) was used to ensure the quality of the data.

A short description of data set [2]: 4 day CCK-8 cytotoxicity assay using THP-1 cells. Type of data set: cell-based. As to conditions: human, read-out: Dengue CC50 (THP-1). The protocol: 3) Protocols for Automated 4 Days CCK8 (Dojindo) Cytotoxicity Assay in HepG2 and THP-1 Cells • 1. 25 μL of HepG2 suspension containing 1.6×10^4 cells/ml (400 cells/well) or 25 μL of THP-1 suspension containing 8×10^4 cells/ml (2000 cells/well) was dispensed into a clear 384-well plate by GNF dispenser 2B vertical-head. • 2. The plate was pre-incubated for 24 h in the GNF incubator (humidified, 37° C., 5% CO2). • 3. Serial-diluted compound were directly transferred into the culture media in the plate (200× dilution). • 4. Plates were incubated for 96 hours in the GNF incubator. • 5. CCK-8 was thawed on the bench-top, and was pre-diluted with media (2.5× dilutions). • 6. 35 μL of 2.5× diluted CCK8 was added to each well of the plate by GNF dispenser 1C angled-head. • 7. The plates were incubated for 3 hours in the incubator. • 8. The absorbance at 450 nm was measured by Envision. Dengue Assay on Cryopreserved PBMC Cells
THP-1 cells grown in suspension were counted and diluted to 8×10^4 cells/ml in RPMI-1640 media supplemented with 10% fetal bovine serum and 1% penicillin/streptomycin. 25 ul of the THP-1 containing media consisting of 2000 cells were dispensed in 384-well tissue culture plate and pre-incubated at room temperature for 30 minutes, followed by 37° C., 5% CO2 overnight in the humidified incubator. On the next day, serial-diluted compound plates were prepared and 125 nl of compounds at various concentrations were then dispensed into the tissue culture well (200× dilution). The plates were then transferred to 37° C., 5% CO2 humidified incubator for additional 96 hours. Cytotoxicity was measured by CCK-8 assay. Briefly, CCK-8 was thawed on bench top and diluted 2.5× with the growth media. 35 ul of the pre-diluted CCK-8 was then introduced into each well and the plates were then further incubated in 37° C., 5% CO2 humidified incubator for 3 hours. The absorbance was read by Envision at 450 nm. Dose response curves were plotted from the mean absorbance (n=2) versus the log of the concentration of test compounds. The EC50 is calculated by nonlinear regression analysis. A positive control (puromycin) was used to ensure the quality of the data.

The next data set can be described thus: in vitro. The conditions noted are these: HCV GT1b CC50 (uM).
The subject of data set [3] is GT1b HCV luciferase replicon. In words: HCV replicon antiviral EC50 assay. Type of data set: cell-based, Hepatitis C virus. On the technique in general: Replicon systems follow genome replication, usually without infectious particles.
The target in data set [4] is T1, Dengue polymerase (Dengue virus type 2, UniProt P29990). Kind of data set: biochemical. The conditions noted are these: Elongation.
The target in data set [5] is T1, Dengue polymerase. Kind of data set: biochemical. The conditions noted are these: De novo.
For the next data set, the target named is HCV polymerase (Hepatitis C virus genotype 1b, UniProt Q9WMX2). In words: biochemical.
Where [6] appears, read: Hepatitis C virus, GT1B, 72 h, read-out: HCV GT1b EC50 (uM).

Where two headings read alike, the source gives them in different places. Where only a bound is given, the exact number is not on record here.

T1 sequence (P29990 2492-3391 limits assumed): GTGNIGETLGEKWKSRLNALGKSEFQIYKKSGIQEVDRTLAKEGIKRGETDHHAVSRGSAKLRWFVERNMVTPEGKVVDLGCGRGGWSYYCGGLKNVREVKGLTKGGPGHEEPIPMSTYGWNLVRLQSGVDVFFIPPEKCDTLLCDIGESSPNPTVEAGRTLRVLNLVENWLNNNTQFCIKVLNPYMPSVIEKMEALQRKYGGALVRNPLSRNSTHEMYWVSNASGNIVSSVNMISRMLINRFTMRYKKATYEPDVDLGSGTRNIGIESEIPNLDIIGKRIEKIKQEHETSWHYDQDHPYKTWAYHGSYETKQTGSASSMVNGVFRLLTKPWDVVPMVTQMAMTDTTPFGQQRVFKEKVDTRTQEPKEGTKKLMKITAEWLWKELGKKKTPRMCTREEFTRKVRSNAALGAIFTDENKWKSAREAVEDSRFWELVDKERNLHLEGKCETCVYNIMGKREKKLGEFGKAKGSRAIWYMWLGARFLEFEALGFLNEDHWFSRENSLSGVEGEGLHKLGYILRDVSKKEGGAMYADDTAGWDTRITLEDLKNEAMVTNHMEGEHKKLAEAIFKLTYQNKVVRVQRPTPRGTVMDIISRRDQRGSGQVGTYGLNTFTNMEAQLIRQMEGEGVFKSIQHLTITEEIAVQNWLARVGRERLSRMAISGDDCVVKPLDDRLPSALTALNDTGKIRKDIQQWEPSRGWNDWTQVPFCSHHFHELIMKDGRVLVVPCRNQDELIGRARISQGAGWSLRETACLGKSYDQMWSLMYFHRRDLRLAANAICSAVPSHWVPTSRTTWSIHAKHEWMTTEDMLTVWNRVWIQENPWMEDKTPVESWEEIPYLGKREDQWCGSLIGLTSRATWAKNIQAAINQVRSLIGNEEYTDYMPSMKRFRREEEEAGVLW
Sequence of HCV polymerase (Q9WMX2 2420-3010 limits assumed): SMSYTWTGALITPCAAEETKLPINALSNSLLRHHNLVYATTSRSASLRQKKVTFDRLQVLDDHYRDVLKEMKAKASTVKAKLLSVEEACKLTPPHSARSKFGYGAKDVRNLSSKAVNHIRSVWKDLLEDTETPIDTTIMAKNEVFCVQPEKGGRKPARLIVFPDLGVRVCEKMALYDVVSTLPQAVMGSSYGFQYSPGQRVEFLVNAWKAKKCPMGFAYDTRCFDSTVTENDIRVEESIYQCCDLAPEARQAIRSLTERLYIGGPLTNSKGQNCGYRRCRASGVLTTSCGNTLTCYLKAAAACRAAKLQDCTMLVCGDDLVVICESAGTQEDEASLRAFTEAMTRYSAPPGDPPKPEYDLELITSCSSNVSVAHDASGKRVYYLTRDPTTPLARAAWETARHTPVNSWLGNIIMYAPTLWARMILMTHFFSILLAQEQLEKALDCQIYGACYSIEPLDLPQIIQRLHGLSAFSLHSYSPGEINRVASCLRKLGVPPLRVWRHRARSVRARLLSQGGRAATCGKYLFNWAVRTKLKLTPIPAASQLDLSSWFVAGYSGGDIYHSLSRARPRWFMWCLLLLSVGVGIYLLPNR

In the case of `C#C[C@@]1(O)[C@H](O)[C@@H](CO[P@@](=O)(N[C@@H](C)C(=O)OC(C)C)Oc2ccccc2)O[C@H]1n1ccc(=O)[nH]c1=O` (single isomer, unassigned) [Example 1], the CC50 in data set [1] is > 20000 nM; in “in vitro”, > 25 µM. Further, the EC50 (commonly the concentration giving half of the maximal effect) with Dengue virus (Dengue virus, PBMC, 48 h) amounted to 400 nM; with Dengue virus (48 hours), 230 nM; in data set [3] (setting [6]), 0.066 µM; in data set [3] (read-out: HCV GT1b EC50), 0.098 µM. In addition, in data set [2], the CC50 at 96 h is > 50000 nM.
Take `CC#C[C@@]1(O)[C@H](O)[C@@H](COP(=O)(O)OP(=O)(O)OP(=O)(O)O)O[C@H]1n1ccc(=O)[nH]c1=O` [Example 1.9, ((2R,3R,4R,5R)-5-(2,4-dioxo-3,4-dihydropyrimidin-1(2H)-yl)-3,4-dihydroxy-4-(prop-1-yn-1-yl)tetrahydrofuran-2-yl)methyl tetrahydrogen triphosphate]: the values for the IC50 on Dengue polymerase [4] and on Dengue polymerase [5] were 2100 nM and 3400 nM, respectively.
On to `C#C[C@@]1(O)[C@H](O)[C@@H](COP(=O)(O)OP(=O)(O)OP(=O)(O)O)O[C@H]1n1ccc(=O)[nH]c1=O` [Example 1.8, ((2R,3R,4R,5R)-5-(2,4-dioxo-3,4-dihydropyrimidin-1(2H)-yl)-4-ethynyl-3,4-dihydroxytetrahydrofuran-2-yl)methyl tetrahydrogen triphosphate], for which the IC50 (in general, the concentration that gives 50% inhibition) against Dengue polymerase [4] came to 1200 nM; at HCV polymerase, 8300 nM; against Dengue polymerase [5], 2900 nM.
Turning to `C#C[C@@]1(O)[C@H](O)[C@@H](COP(=O)(N[C@@H](C)C(=O)OCc2ccccc2)Oc2ccc(Cl)cc2)O[C@H]1n1ccc(=O)[nH]c1=O` (stereo partly drawn) [Example 1.5, (2S)-benzyl 2-(((4-chlorophenoxy)(((2R,3R,4R,5R)-5-(2,4-dioxo-3,4-dihydropyrimidin-1(2H)-yl)-4-ethynyl-3,4-dihydroxytetrahydrofuran-2-yl)methoxy)phosphoryl)amino)propanoate], the EC50 was 60 nM in the data set with Dengue virus (Dengue virus, PBMC, 48 h) and 0.131 µM in data set [3] (setting [6]). The CC50 at 96 h in data set [2] stood at 8300 nM. Further, the CC50 in “in vitro” was > 25 µM.
In the case of `C#C[C@@]1(O)[C@H](O)[C@@H](COP(=O)(NCC(=O)OC(C)C)Oc2ccc(Cl)cc2)O[C@H]1n1ccc(=O)[nH]c1=O` (stereo partly drawn) [Example 1.6, isopropyl 2-(((4-chlorophenoxy)(((2R,3R,4R,5R)-5-(2,4-dioxo-3,4-dihydropyrimidin-1(2H)-yl)-4-ethynyl-3,4-dihydroxytetrahydrofuran-2-yl)methoxy)phosphoryl)amino)acetate], the half-maximal effective concentration (EC50) in the data set with Dengue virus (Dengue virus, PBMC, 48 h) came to 170 nM; in data set [3] (setting [6]) it was 0.152 µM. Besides, in data set [2], the CC50 at 96 h was > 50000 nM. For the same compound, the CC50 in “in vitro” is > 25 µM.
In the same order, the values of `CC#C[C@@]1(O)[C@H](O)[C@@H](COP(=O)(N[C@@H](C)C(=O)OC(C)C)Oc2ccccc2)O[C@H]1n1ccc(=O)[nH]c1=O` (stereo partly drawn) [Example 1.1, (2S)-isopropyl 2-(((((2R,3R,4R,5R)-5-(2,4-dioxo-3,4-dihydropyrimidin-1(2H)-yl)-3,4-dihydroxy-4-(prop-1-yn-1-yl)tetrahydrofuran-2-yl)methoxy)(phenoxy)phosphoryl)amino)propanoate] are 970 nM, 0.243 µM, 48000 nM and > 25 µM.
